Assays:
[1] = Molar enthalpy of transition or fusion; settings: Crystal; DSC
[2] = Crystal; for vapor or sublimation pressure: Transpiration method; for Normal melting temperature: DTA

CC(=O)Nc1ccccc1C(=O)O [2-acetamidobenzoic acid]
Settings	Molar enthalpy of transition or fusion [kcal/mol]	Normal melting temperature [°C]
[1]	11.8	–
[2]	–	185.2

[2]
Settings	vapor or sublimation pressure [kPa]
344.7 K	1.66e-05
351.3 K	3.37e-05
357.3 K	5.58e-05
363.5 K	0.000111
363.8 K	0.000116
366.2 K	0.000138
369.7 K	0.000235
371 K	0.000243
373.5 K	0.000289
377.4 K	0.000555
380 K	0.000571
383.8 K	0.000948
387.2 K	0.00117
390.4 K	0.00152
393.5 K	0.00198

CC(=O)Nc1cccc(C(=O)O)c1 [3-(acetylamino)benzoic acid]
Settings	Molar enthalpy of transition or fusion [kcal/mol]	Normal melting temperature [°C]
[1]	9.42	–
[2]	–	245.1

[2]
Settings	vapor or sublimation pressure [kPa]
407.2 K	2.67e-05
410.9 K	4.67e-05
414.1 K	5.62e-05
416.6 K	6.27e-05
420.9 K	0.000102
423.6 K	0.000114
426.8 K	0.000148
427.3 K	0.000187
430.6 K	0.000246
433 K	0.000315
434.8 K	0.000374
436.1 K	0.000403
440.1 K	0.00051
442.9 K	0.000663

CC(=O)Nc1ccc(C(=O)O)cc1 [4-acetamidobenzoic acid]
Settings	Molar enthalpy of transition or fusion [kcal/mol]	Normal melting temperature [°C]
[1]	8.17	–
[2]	–	262.1

[2]
Settings	vapor or sublimation pressure [kPa]
395 K	1.43e-05
398.2 K	2.1e-05
398.5 K	2.09e-05
402.5 K	2.92e-05
405.5 K	3.48e-05
409.1 K	5.24e-05
412.1 K	6.72e-05
415.3 K	0.0001
418.9 K	0.000126
422.1 K	0.000193
425 K	0.000227
428.5 K	0.000352
431.7 K	0.000393
436.2 K	0.000775
440 K	0.000934

Source: the NIST ThermoML archive (doi:10.1016/j.tca.2014.03.019)
